Data taken from patent publication US20170042899A1, “Use of Tetrahydrobiopterine Derivatives in the Treatment and Nutrition of Patients With Amino Acid Metabolic Disorders” (BioMarin Pharmaceutical Inc., priority 2002, published 2017).

Experiments:
[1] = test system: patients with a lack of tetrahydrobiopterine; details: more than 350 patients with a lack of tetrahydrobiopterine treated with the co-factor; cited from earlier work
[2] = test system: persons with a deficiency in phenylalanine hydroxylase; test: Combined phenylalanine and tetrahydrobiopterine exposure or stress test (phenylalanine concentration in blood); assay type: in vivo, human; details: for patients with a response to tetrahydrobiopterine: blood phenylalanine sank by at least 30% 15 hours after exposure
Excerpt: In order to research the therapeutic effectiveness of tetrahydrobiopterine, one carries out a combined phenylalanine tetrahydrobiopterine stress test for diagnostic and analyzes the effect in vivo by means of determining the [^13C] phenylalanine oxidation rate and 38 persons with a deficiency in phenylalanine hydroxylase prior to and subsequent to the administration of tetrahydrobiopterine derivatives. The response to tetrahydrobiopterine was associated with certain genotypes, and we localized mutations on the basis of the structural models of the phenylalanine hydroxylase monomer and the therefrom derived protein misfolding. We obtained the written consent of the families of 38 children, which suffered from various subset forms of hyperphenylalaninamie. The classification occurred depending upon the plasma phenylalanine concentration prior to treatment: less than 600 μmol/l, mild hyperphenylalaninamie, n=10, age 15 days through 10 years; 600-1200 μmol/l, mild, n=21, age 8 days through 17 years; greater than 1200 μmol, classical phenylketonurea, n=7, age 1 day through 9 years. A defect in this tetrahydrobiopterine biosynthesis or in the recycling of the tetrahydrobiopterine was ruled out by an analysis of the pterine value in urine and the dihydropteridine-reductase activity in erythrocytes. We examined seven patients during the newborn period and 31 as they were already older. Afflicted siblings (n=5) were likewise included in the study, since it is known that non-genetic factors influence the phenylalanine homeostasis. The uptake of phenylalanine was accomplished in that the patients were allowed to take a meal with 100 mg phenylalanine per kilogram body weight. One hour after the end of the meal the patients took 20 mg tetrahydrobiopterine per kilogram (Schircks Laboratories, Jona, Switzerland). The phenylalanine concentration in blood was determined by an electro spray ionization tandem mass spectroscopy—prior to the uptake of phenylalanine and prior to and subsequent to (at 4, 8 and 15 hours) provocation or exposure to tetrahydrobiopterine. During the test phase the newborns were fed with mothers milk, while the older children received a standardized protein supply (10 mg phenylalanine per kg) between six and eight hours after the exposure to tetrahydrobiopterine. The patients were classified as reacting to tetrahydrobiopterine if the phenylalanine concentration in the blood 15 hours after the exposure to tetrahydrobiopterine sank by at least 30% in comparison to the value prior to the intake of tetrahydrobiopterine.

[3] = test system: children with mild phenylketonurea; test: Long time treatment with tetrahydrobiopterine replacing the phenylalanine poor diet; assay type: in vivo, human; details: five children
Protocol: The families with five children aged from 4 to 14 years with mild phenylketonurea consented to a therapeutic test, in which the phenylalanine poor diet was replaced by an oral administration of tetrahydrobiopterine in daily doses between 7.1 and 10.7 mg/kg body weight. The treatment lasted 207±51.3 days (average±SD; length 166-263).

[4] = test system: persons with a deficiency in phenylalanine hydroxylase; test: In vivo analysis of L-[13C]phenylalanine oxidation (13CO2 breath test); set-up: species or system human
Excerpt: In order to research the therapeutic effectiveness of tetrahydrobiopterine, one carries out a combined phenylalanine tetrahydrobiopterine stress test for diagnostic and analyzes the effect in vivo by means of determining the [^13C] phenylalanine oxidation rate and 38 persons with a deficiency in phenylalanine hydroxylase prior to and subsequent to the administration of tetrahydrobiopterine derivatives. The response to tetrahydrobiopterine was associated with certain genotypes, and we localized mutations on the basis of the structural models of the phenylalanine hydroxylase monomer and the therefrom derived protein misfolding.
The tests were carried out after a four hour fast in small children and an overnight fast in older children. Overall 6 mg L-[1^−13C] phenylalanine (Euriostop, Paris, France) per kilogram body weight were taken in orally. The tracer was dissolved in a 25% dextrose solution (2 mg per milliliter). Subsequently breath samples were taken over a period of 180 minutes and stored in air-free glass pipes until analysis by means of isotope mass spectroscopy (deltaS, Thermoquest, Bremen). The recapture of carbon-13 in the breath samples was calculated, as described by Treacy et al, wherein a total carbon dioxide of 300 mmol per hour×[…] of body surface was assumed. The ^13CO2-production was represented as a cumulative percentage rate of the calculated dose against time. The validity of the results in the newborn could have been influenced by the nutrition or the fact that the collection of the breath sample is more difficult with them than with older children. […] In cross section, less than one (older children) and less than two (newborns) of 27 sequential ^13CO2 measurements, which were obtained during the 180 minutes of an individual test, were not capable of interpretation.
Patients with various clinical stages of illness achieved basile cumulative ^13CO2 recapture rates, which respectively reflected their individual rest phenylalanine oxidation capacity (classic phenylketonurea, average value 1.4%; mild phenylketonurea, 3.1%; mild hyperphenylalaninamie, 5.6%; the healthy comparison group 9.0%). […] The rise was more clearly pronounced in patients with a mild phenylketonurea than in patients with a mild hyperphenylalaninamie (FIG. 2A). […] This is associated therewith that with longer therapies, also in the cases of hyperphenylalaninamie derivative, improvement by tetrahydrobiopterine could be achieved.

Serum residence time = details: in vivo
[5] = a patient with classic phenylketonurea

Row | serum residence time (Serum residence time) | SMILES | dose dependent undesired side effects [1] | phenylalanine concentration in the blood after exposure ([2]; 23 of the 27 patients reacting to tetrahydrobiopterine) | patients in whom tetrahydrobiopterine significantly decreased the phenylalanine content in the blood and improved the phenylalanine oxidation ([2]; 27 of the 31 patients with mild hyperphenylalaninamie (n=10) or mild phenylketonurea (n=21)) [%] | phenylalanine concentration in blood, change [2, 5] | patients satisfying the criteria of a strong response to tetrahydrobiopterine ([2]; classical phenylketonurea (n=7)) | patients with a response to tetrahydrobiopterine ([2]; mild hyperphenylalaninamie) | patients with a response to tetrahydrobiopterine ([2]; mild phenylketonurea) | phenylalanine concentration in the blood after exposure ([2]; patients which did not react) | phenylalanine concentration in blood during the pure cofactor treatment ([3]; diet replaced by tetrahydrobiopterine) [µmol/L] | daily phenylalanine tolerance with treatment (range) ([3]; oral 7.1-10.7 mg/kg body weight daily) | daily phenylalanine tolerance with treatment (average±SD) ([3]; oral 7.1-10.7 mg/kg body weight daily, 207±51.3 days) [mg/kg body weight] | total 13CO2 recapture after treatment ([4]; 10 mg/kg body weight, 24 hours, patients which had responded to the stress test) | persons reacting to tetrahydrobiopterine that achieved oxidation rates in a normal level ([4]; 27 persons reacting to tetrahydrobiopterine) | phenylalanine oxidation rate, change [4, 5] | patients which did not respond exhibiting a mild rise in phenylalanine oxidation ([4]; after short time therapy with tetrahydrobiopterine)
1 |  | C[C@H](O)[C@H](O)[C@H]1CNc2[nH]c(N)nc(=O)c2N1.Cl.Cl [BIOPTEN, sapropterinhydrochloride] | interference with sleep, polyurea and thin stool |  |  |  |  |  |  |  |  |  |  |  |  |  | 
2 | approximately 8 hours | C[C@H](O)[C@H](O)[C@H]1CNc2nc(N)[nH]c(=O)c2N1 [tetrahydrobiopterine, 5,6,7,8-tetrahydrobiopterine] |  | less than 200 μmol/l | 87 | slight increase | none | all ten | 17 of 21 | exceeded 400 μmol/l | 378 ± 173 | 17.9-90 mg/kg body weight | 61.4±27.9 | rose significantly | 22 of the 27 | improvement | 8 of 11
